Experimental data taken from patent publication US20150105252A1, “SUBSTITUTED PYRAZOLES AS HERBICIDES” (E I DU PONT DE NEMOURS AND COMPANY, priority 2013, published 2015).

Legend:
guineagrass = assay: Test E preemergence; format: in vivo, Panicum maximum; settings: 21 days, scale 0 to 100
Source text: (§1) Seeds of plant species selected from bermudagrass (Cynodon dactylon), Surinam grass (Brachiaria decumbens), crabgrass, large (large crabgrass, Digitaria sanguinalis), crabgrass, naked (naked crabgrass, Digitaria nuda), foxtail, green (green foxtail, Setaria viridis), johnsongrass (Sorghum halepense), kochia (Kochia scoparia), morningglory (pitted morningglory, Ipomoea lacunosa), nutsedge, purple (purple nutsedge, Cyperus rotundus), ragweed (common ragweed, Ambrosia elation), mustard, black (black mustard, Brassica nigra), guineagrass (Panicum maximum), dallisgrass (Paspalum dilatatum), barnyardgrass (Echinochloa crus-galli), sandbur (southern sandbur, Cenchrus echinatus), sowthistle (common sowthistle, Sonchus oleraceous), ryegrass, Italian (Italian ryegrass, Lolium multiflorum), signalgrass (broadleaf signalgrass, Brachiaria platyphylla), dayflower, VA (Virginia (VA) dayflower, Commelina virginica), bluegrass (annual bluegrass, Poa annua), quackgrass (Elytrigia repens), mallow (common mallow, Malva sylvestris), buckwheat, wild (wild buckwheat, Polygonum convolvulus), leafy spurge (Euphorbia esula), common chickweed (Stellaria media), wild poinsettia (Euphorbia heterophylla), pigweed, palmer (palmer pigweed, Amaranthus palmeri), and pigweed (redroot pigweed, Amaranthus retroflexus) were planted into a blend of loam soil and sand and treated preemergence with test chemicals formulated in a non-phytotoxic solvent mixture which included a surfactant.
(§2) Treated plants and controls were maintained in a greenhouse for 21 days, after which time all species were compared to controls and visually evaluated. Plant response ratings, summarized in Table E, are based on a scale of 0 to 100 where 0 is no effect and 100 is complete control. A dash (-) response means no test result.

mallow = assay: Test E preemergence; format: in vivo, Malva sylvestris; settings: 21 days, scale 0 to 100
Source text: as §1, §2

sowthistle = assay: Test E preemergence; format: in vivo, Sonchus oleraceous; settings: 21 days, scale 0 to 100
Source text: as §1, §2

Surinam grass = assay: Test E preemergence; format: in vivo, Brachiaria decumbens; settings: 21 days, scale 0 to 100
Source text: as §1, §2

sandbur = assay: Test E preemergence; format: in vivo, Cenchrus echinatus; settings: 21 days, scale 0 to 100
Source text: as §1, §2

common ragweed [1] = assay: Test A postemergence; format: in vivo, Ambrosia elation
Procedure, shortened: (§3)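 Seeds were sown in a loam soil–sand blend and given a directed soil spray preemergence; postemergence plants at 2–10 cm, one- to two-leaf stage, were sprayed with compound in non-phytotoxic solvent with surfactant. After about 10 days in a greenhouse, injury was visually rated against untreated controls (0 = no effect, 100 = complete control).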

blackgrass = assay: Test A postemergence; format: in vivo, Alopecurus myosuroides
Procedure, shortened: as §3

common ragweed [2] = assay: Test A preemergence; format: in vivo, Ambrosia elation
Procedure, shortened: as §3

[3] = Postemergence, 500 g ai/ha, 0 to 100 scale (0 no effect, 100 complete control)
[4] = postemergence, 125 g ai/ha, about 10 days, visual rating on 0 to 100 scale (0 no effect, 100 complete control)

Row | SMILES | Plant response rating, Guineagrass (guineagrass; 16 g ai/ha) | Plant response rating, Guineagrass (guineagrass; 31 g ai/ha) | Plant response rating, Guineagrass (guineagrass; 62 g ai/ha) | Plant response rating, Guineagrass (guineagrass; 125 g ai/ha) | Plant response rating, Guineagrass (guineagrass; 250 g ai/ha) | Plant response rating, Mallow (mallow; 16 g ai/ha) | Plant response rating, Mallow (mallow; 31 g ai/ha) | Plant response rating, Mallow (mallow; 62 g ai/ha) | Plant response rating, Mallow (mallow; 125 g ai/ha) | Plant response rating, Mallow (mallow; 250 g ai/ha) | Plant response rating, Surinam Grass (Surinam grass; 16 g ai/ha) | Plant response rating, Surinam Grass (Surinam grass; 31 g ai/ha) | Plant response rating, Surinam Grass (Surinam grass; 62 g ai/ha) | Plant response rating, Surinam Grass (Surinam grass; 125 g ai/ha) | Plant response rating, Surinam Grass (Surinam grass; 250 g ai/ha) | Plant response rating, Sandbur (sandbur; 16 g ai/ha) | Plant response rating, Sandbur (sandbur; 31 g ai/ha) | Plant response rating, Sandbur (sandbur; 62 g ai/ha) | Plant response rating, Sandbur (sandbur; 125 g ai/ha) | Plant response rating, Sandbur (sandbur; 250 g ai/ha) | also measured
1 | CCc1cc(C(=O)NCC(F)(F)F)nn1Cc1ccnc(C(F)(F)F)c1 [Compound 78, 5-ethyl-N-(2,2,2-trifluoroethyl)-1-[[(2-trifluoromethyl)-4-pyridinyl]methyl]-1H-pyrazole-3-carboxamide] | 90 | 100 | 100 | 100 | 100 | 100 | 100 | 100 | 100 | 100 | 20 | 80 | 90 | 90 | 100 | 40 | 50 | 90 | 95 | 100 | Plant response rating, Sowthistle (sowthistle; 62 g ai/ha): 100; Plant response rating, Sowthistle (sowthistle; 125 g ai/ha): 100; Plant response rating, Sowthistle (sowthistle; 250 g ai/ha): 100
2 | CCc1cc(C(=O)NC(C)C)nn1Cc1ccnc(C(F)(F)F)c1 [Compound 103] | 100 | 100 | 100 | 100 | 100 | 95 | 98 | 98 | 100 | 100 | 95 | 100 | 100 | 100 | 100 | 40 | 70 | 100 | 100 | 100 | –
3 | CCOc1cc(C(=O)NCC(F)(F)F)nn1Cc1ccnc(C(F)(F)F)c1 [Compound 104] | 100 | 100 | 100 | 100 | 100 | 40 | 98 | 100 | 98 | 100 | 50 | 75 | 95 | 100 | 100 | 70 | 90 | 100 | 98 | 100 | –
4 | CCCc1cc(C(=O)NCC(F)(F)F)nn1Cc1ccnc(C(F)(F)F)c1 [Compound 105] | 75 | 90 | 100 | 100 | 100 | 100 | 100 | 100 | 100 | 100 | 35 | 40 | 80 | 95 | 100 | 5 | 50 | 70 | 95 | 98 | Plant response rating, Sowthistle (sowthistle; 16 g ai/ha): 100; Plant response rating, Sowthistle (sowthistle; 31 g ai/ha): 100; Plant response rating, Sowthistle (sowthistle; 62 g ai/ha): 100; Plant response rating, Sowthistle (sowthistle; 125 g ai/ha): 100; Plant response rating, Sowthistle (sowthistle; 250 g ai/ha): 100
5 | CCONC(=O)c1cc(CC)n(Cc2cc(C(F)(F)F)no2)n1 [Compound 125] | – | – | – | – | – | – | – | – | – | – | – | – | – | – | – | – | – | – | – | – | Common Ragweed plant response rating (common ragweed [1]; [3]): 60; Common Ragweed plant response rating (common ragweed [1]; [4]): 20; Blackgrass plant response rating (blackgrass; [3]): 90; Blackgrass plant response rating (blackgrass; [4]): 30; Common Ragweed plant response rating (common ragweed [2]; 125 g ai/ha, visual injury, 0 to 100 scale, approx. 10 days): 50; Common Ragweed plant response rating (common ragweed [2]; 500 g ai/ha, visual injury after approx. 10 days, 0 to 100 scale (0 no effect, 100 complete control)): 90
